Values quoted from earlier work, collected in patent US8716300B2, “Frequency modulated drug delivery (FMDD)” (Synthonics, Inc., priority 2008, dated 2014).

Columns and labels:
[1] = tested on: MES induced seizures; conditions: combined treatment of dizocilpine with valproate
[2] = tested on: reserpinized rats; conditions: remacemide 5 mg/kg administered with lowest effective dose of levodopa (75 mg/kg)

| Structure (SMILES) | protection against MES induced seizures [1] | reduction in the ED50 of valproate ([1]; MES induced seizures) | increase in horizontal motor activity over levodopa given alone [2] |
| --- | --- | --- | --- |
| C[C@]12N[C@H](Cc3ccccc31)c1ccccc12 [dizocilpine] | 50% | ~3 fold | – |
| CC(Cc1ccccc1)(NC(=O)CN)c1ccccc1 (stereo not drawn) [remacemide] | – | – | 9 fold |
